# From patent US9440969B2, “Compounds and methods for kinase modulation, and indications therefor” (PLEXXIKON INC., priority 2009, dated 2016)
# Key:
# [1] = Relative solubility by turbidity in aqueous buffers (pH 1.5, 4.5, 6.8, 7.4); format: physicochemical; details: for turbidity threshold (L, M, H) 1.4: pH 1.5 buffer (SGF); for turbidity threshold (L, M, H) 4.5: pH 4.5 buffer (SIF); for turbidity threshold (L, M, H) 6.8: pH 6.8 buffer (SIF); for turbidity threshold (L, M, H) 7.4: pH 7.4 buffer (HEPES)
# In short: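 2-fold DMSO dilution series from 25 mM stocks were added to SGF (0.5M NaCl, pH 1.5), SIF (0.05M NaH2PO4, pH 4.5/6.8) or HEPES (10 mM, 150 mM NaCl, pH 7.4). Absorbance at 490, 535 and 650 nm; value is the concentration crossing OD 0.01, averaged over wavelengths. Low <31.3 μM, moderate 31.3–250 μM, high >250 μM.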
# CYP3A4(BQ) = CYP3A4(BQ) (Homo sapiens, UniProt P08684); assay: CYP3A4 inhibition (substrate BQ); format: in vitro ADME; details: read-out: Cyp IC50 (μM) 3A4(BQ)
# Description: CYP (Cytochrome P450) enzymes are the major drug metabolizing enzymes present in the liver. The inhibition of CYP enzyme activity (IC50) for each of CYP1A2, CYP2C19, CYP2C9, CYP2D6, CYP3A4(BFC) and CYP3A4(BQ) is determined for compounds, where inhibition of metabolism of a known substrate leads to a decrease in the fluorescence of the metabolized product. The fluorescence of the product is monitored as a function of compound concentration. Compounds are dissolved in dimethyl sulfoxide to a concentration of 100 mM. These are diluted […], into 82 μL of acetonitrile. An 11 μL aliquot of this solution is then added to 204 μL of cofactor mix (1.3% NADPH Regeneration system Solution A, 1.04% NADPH Regeneration system Solution B from BD Biosciences, 5% acetonitrile and 0.05% dimethyl sulfoxide). These are then serially diluted 1:1 (160 μL to 160 μL co-factor mix) for a total of 10 points. A 10 μL aliquot of this final mixture is dispensed into 384 well assay plates and incubated for 10 minutes at 37° C. Enzyme and substrate mix (10 μL; 0.5 pmol CYP1A2/5 μM CEC; 1.0 pmol CYP2C9/75 μM MFC; 0.5 pmol CYP2C19/25 μM CEC; 1.5 pmol CYP2D6/1.5 μM AMMC; 1.0 pmol CYP3A4/50 μM BFC; or 1.0 pmol CYP3A4/40 μM BQ) is added to these assay plates. Assay plates are incubated at 37° C. (CYP1A2-15 min; CYP2C9-45 min; CYP2C19, 2D6 and 3A4-30 min) and read in a Tecan Safire 2 plate reader (CYP1A2, 2C19 and 3A4 409 ex/460 em; CYP2C9 and 2D6 409 ex/530 em). The signal versus compound concentration is used to determine the IC50. The enzymes and substrates for this assay are obtained from BD Biosciences.
# Chain of CYP3A4(BQ) (P08684 whole entry): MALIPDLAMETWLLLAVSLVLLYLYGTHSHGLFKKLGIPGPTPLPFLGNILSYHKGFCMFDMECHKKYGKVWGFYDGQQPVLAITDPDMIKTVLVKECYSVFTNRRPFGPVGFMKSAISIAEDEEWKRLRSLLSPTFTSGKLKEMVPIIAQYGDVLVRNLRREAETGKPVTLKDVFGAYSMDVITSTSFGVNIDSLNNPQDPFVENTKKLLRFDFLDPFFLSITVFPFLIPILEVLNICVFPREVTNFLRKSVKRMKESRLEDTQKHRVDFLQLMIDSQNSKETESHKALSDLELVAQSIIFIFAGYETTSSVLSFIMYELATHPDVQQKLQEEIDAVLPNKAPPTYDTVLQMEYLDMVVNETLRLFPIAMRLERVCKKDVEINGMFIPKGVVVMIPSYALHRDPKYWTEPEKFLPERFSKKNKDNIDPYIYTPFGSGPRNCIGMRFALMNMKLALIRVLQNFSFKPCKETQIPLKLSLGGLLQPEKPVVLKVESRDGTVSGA
IC50 (CYP3A4(BQ)) [µM],Compound,"turbidity threshold (L, M, H) 1.4 [1]","turbidity threshold (L, M, H) 4.5 [1]","turbidity threshold (L, M, H) 6.8 [1]","turbidity threshold (L, M, H) 7.4 [1]"
> 10,"CCCS(=O)(=O)Nc1ccc(F)c(C(=O)c2c[nH]c3ncc(-c4ccc5nn(C)cc5c4)cc23)c1F [P-0010, Propane-1-sulfonic acid {2,4-difluoro-3-[5-(2-methyl-2H-indazol-5-yl)-1H-pyrrolo[2,3-b]pyridine-3-carbonyl]-phenyl}-amide]",L (low solubility if the threshold concentration is <31.3 μM),L (low solubility if the threshold concentration is <31.3 μM),L (low solubility if the threshold concentration is <31.3 μM),L (low solubility if the threshold concentration is <31.3 μM)
> 10,"CCCS(=O)(=O)Nc1ccc(F)c(C(=O)c2c[nH]c3ncc(-c4ccc5cn(C)nc5c4)cc23)c1F [P-0011, Propane-1-sulfonic acid {2,4-difluoro-3-[5-(2-methyl-2H-indazol-6-yl)-1H-pyrrolo[2,3-b]pyridine-3-carbonyl]-phenyl}-amide]",L (low solubility if the threshold concentration is <31.3 μM),L (low solubility if the threshold concentration is <31.3 μM),M (moderate solubility if the threshold concentration is 31.3 μM to 250 μM),L (low solubility if the threshold concentration is <31.3 μM)
> 10,"CCCS(=O)(=O)Nc1ccc(F)c(C(=O)c2c[nH]c3ncc(-c4ccc5[nH]ccc5c4)cc23)c1F [P-0012, Propane-1-sulfonic acid {2,4-difluoro-3-[5-(1H-indol-5-yl)-1H-pyrrolo[2,3-b]pyridine-3-carbonyl]-phenyl}-amide]",L (low solubility if the threshold concentration is <31.3 μM),L (low solubility if the threshold concentration is <31.3 μM),L (low solubility if the threshold concentration is <31.3 μM),L (low solubility if the threshold concentration is <31.3 μM)
> 10,"CCCS(=O)(=O)Nc1ccc(F)c(C(=O)c2c[nH]c3ncc(-c4cccc5nn(C)cc45)cc23)c1F [P-0015, Propane-1-sulfonic acid {2,4-difluoro-3-[5-(2-methyl-2H-indazol-4-yl)-1H-pyrrolo[2,3-b]pyridine-3-carbonyl]-phenyl}-amide]",L (low solubility if the threshold concentration is <31.3 μM),L (low solubility if the threshold concentration is <31.3 μM),L (low solubility if the threshold concentration is <31.3 μM),L (low solubility if the threshold concentration is <31.3 μM)
> 10,"CCCS(=O)(=O)Nc1ccc(F)c(C(=O)c2c[nH]c3ncc(-c4ccc5ncsc5c4)cc23)c1F [P-0020, Propane-1-sulfonic acid [3-(5-benzothiazol-6-yl-1H-pyrrolo[2,3-b]pyridine-3-carbonyl)-2,4-difluoro-phenyl]-amide]",,,,
> 10,"CCCS(=O)(=O)Nc1ccc(F)c(C(=O)c2c[nH]c3ncc(-c4ccc5[nH]cc(C)c5c4)cc23)c1F [P-0023, Propane-1-sulfonic acid {2,4-difluoro-3-[5-(3-methyl-1H-indol-5-yl)-1H-pyrrolo[2,3-b]pyridine-3-carbonyl]-phenyl}-amide]",,,,
> 10,"CCCS(=O)(=O)Nc1ccc(F)c(C(=O)c2c[nH]c3ncc(-c4ccc5cncnc5c4)cc23)c1F [P-0025, Propane-1-sulfonic acid [2,4-difluoro-3-(5-quinazolin-7-yl-1H-pyrrolo[2,3-b]pyridine-3-carbonyl)-phenyl]-amide]",,,,
> 10,"CCCS(=O)(=O)Nc1ccc(F)c(C(=O)c2c[nH]c3ncc(-c4cnn(C5CCNCC5)c4)cc23)c1F [P-1002, Propane-1-sulfonic acid {2,4-difluoro-3-[5-(1-piperidin-4-yl-1H-pyrazol-4-yl)-1H-pyrrolo[2,3-b]pyridine-3-carbonyl]-phenyl}-amide]",M (moderate solubility if the threshold concentration is 31.3 μM to 250 μM),M (moderate solubility if the threshold concentration is 31.3 μM to 250 μM),L (low solubility if the threshold concentration is <31.3 μM),M (moderate solubility if the threshold concentration is 31.3 μM to 250 μM)
> 10,"O=C(c1c(F)ccc(NS(=O)(=O)c2ccc(C(F)(F)F)cc2)c1F)c1c[nH]c2ncc(-c3cnn(C4CCNCC4)c3)cc12 [P-1004, N-{2,4-Difluoro-3-[5-(1-piperidin-4-yl-1H-pyrazol-4-yl)-1H-pyrrolo[2,3-b]pyridine-3-carbonyl]-phenyl}-4-trifluoromethyl-benzenesulfonamide]",L (low solubility if the threshold concentration is <31.3 μM),L (low solubility if the threshold concentration is <31.3 μM),L (low solubility if the threshold concentration is <31.3 μM),L (low solubility if the threshold concentration is <31.3 μM)
> 10,"Cc1ccc(-c2cnc3[nH]cc(C(=O)c4c(F)ccc(NS(=O)(=O)c5cc(F)ccc5F)c4F)c3c2)cn1 [P-1408, N-{2,4-Difluoro-3-[5-(6-methyl-pyridin-3-yl)-1H-pyrrolo[2,3-b]pyridine-3-carbonyl]-phenyl}-2,5-difluoro-benzenesulfonamide]",M (moderate solubility if the threshold concentration is 31.3 μM to 250 μM),L (low solubility if the threshold concentration is <31.3 μM),L (low solubility if the threshold concentration is <31.3 μM),L (low solubility if the threshold concentration is <31.3 μM)
> 10,"Cc1ncc(-c2cnc3[nH]cc(C(=O)c4c(F)ccc(NS(=O)(=O)c5cc(F)ccc5F)c4F)c3c2)cn1 [P-1503, N-{2,4-Difluoro-3-[5-(2-methyl-pyrimidin-5-yl)-1H-pyrrolo[2,3-b]pyridine-3-carbonyl]-phenyl}-2,5-difluoro-benzenesulfonamide]",L (low solubility if the threshold concentration is <31.3 μM),L (low solubility if the threshold concentration is <31.3 μM),L (low solubility if the threshold concentration is <31.3 μM),M (moderate solubility if the threshold concentration is 31.3 μM to 250 μM)
